Tests used:
[1] = system: diet-induced obese mice; test: Serum FFA and glycerol after CL-316,243 injection in ND- or HFD-fed mice; assay type: in vivo; conditions: amlexanox-treated HFD mice compared to vehicle-treated HFD-fed mice; oral gavage 4 days
Protocol: (§1) (A) Fold increase in serum FFA (left panel) and glycerol (right panel) levels 15 min after CL-316,243 injection in ND- or HFD-fed mice treated with amlexanox or vehicle control for 4 days. (B) Glycerol release from ex vivo epididymal (left panel) and inguinal (right panel) WATs after 1 hr pretreatment with amlexanox or vehicle. CL-316,243 treatment was started at time zero. (C) Immunoblots in inguinal WAT lysates from FIG. 5B after 60 min of CL-316,243 treatment. (D) cAMP levels in epididymal WAT 20 min after CL-316,243 (CL) or saline control injection in HFD-fed mice treated with amlexanox or vehicle control for 4 days. (E) Immunoblots in epididymal WAT 5 min after CL-316,243 or saline control injection in HFD-fed mice treated with amlexanox or vehicle control for 4 days. (F) Relative oxygen comsumption of mice in each treatment group.
To test the functional importance of the noncanonical IKKs in maintaining energy balance in vivo, experiments were conducted during development of embodiments of the present invention to investigate whether the administration of a selective inhibitor of IKKε and TBK1, amlexanox, can reverse diet-induced catecholamine resistance in rodentsMice were fed a high fat or normal diet, treated them with amlexanox by oral gavage for 4 days (prior to the point when weight loss is seen), and then gave a single intraperitoneal (IP) injection of the β3-adrenergic agonist CL-316,243. Injection of CL-316,243 stimulated a threefold increase in serum FFA and glycerol levels in both vehicle and amlexanox-treated mice on normal diet (ND).

[2] = system: white adipose tissues from mice on a HFD; test: Glycerol release from ex vivo epididymal and inguinal white adipose tissue; conditions: ex vivo 1 hr pretreatment with amlexanox, CL-316,243 treatment, more pronounced in inguinal depot
Protocol: as §1, with “group. […]” for “group.”

[3] = system: epididymal WAT; test: Immunoblots (HSL phosphorylation) in epididymal WAT after CL-316,243 injection in HFD-fed mice; assay type: in vivo; conditions: HFD-fed mice pretreated with amlexanox 4 days; 5 min after CL-316,243 IP injection
Protocol: as §1
To examine whether inhibition of TBK1 and IKKε with amlexanox reverses resistance to catecholamineinduced lipolysis in vivo by increasing stimulation of cAMP production, cAMP levels we measured in epididymal adipose tissue from mice on HFD after CL-316,243 IP injection. Levels of cAMP were increased after CL-316,243 IP injection in mice on HFD pretreated with amlexanox (FIG. 5D).

CC(C)c1ccc2oc3nc(N)c(C(=O)O)cc3c(=O)c2c1 [amlexanox, 2-amino-7-isopropyl-1-azaxanthone-3-carboxylic acid; 2-amino-7-isopropyl-5-oxo-5H-chromeno[2,3-b]pyridine-3-carboxylic acid]
fold increase in serum glycerol levels after CL-316,243 [1]: significantly higher
glycerol release from white adipose tissues [2]: enhanced glycerol release
HSL phosphorylation in epididymal WAT [3]: increased

Reference: patent publication US20150224089A1, “COMBINATIONS OF IKKi/TBK1 INHIBITORS WITH BETA ADRENERGIC AGONISTS OR SYMPATHETIC NERVOUS SYSTEM ACTIVATORS” (THE REGENTS OF THE UNIVERSITY OF MICHIGAN, priority 2014, published 2015)
